From the NIST ThermoML archive (doi:10.1021/je4009238)

Key:
[1] = 101 kPa, Liquid
[2] = refractive index (Na D-line) (dimensionless); conditions: 101.33 kPa, Liquid
[3] = refractive index (Na D-line) (dimensionless); xn = mol fraction of the nth substance listed; conditions: 101 kPa, Liquid
[4] = xn = mol fraction of the nth substance listed; conditions: 101 kPa, Liquid

CCCCCCn1cc[n+](C)c1.[Cl-] [1-hexyl-3-methylimidazolium chloride]
Conditions | mass density, 288.15 K [kg/m3] | mass density, 298.15 K [kg/m3] | mass density, 308.15 K [kg/m3] | mass density, 318.15 K [kg/m3] | refractive index, 288.15 K | refractive index, 298.15 K | refractive index, 308.15 K | refractive index, 318.15 K | viscosity, 308.15 K [mPa·s] | viscosity, 318.15 K [mPa·s]
[1] | 1047.99 | 1042.2 | 1036.43 | 1030.62 | – | – | – | – | 2044.2 | 884.2
[2] | – | – | – | – | 1.5125 | 1.50953 | 1.50667 | 1.5039 | – | –

CCCCCCn1cc[n+](C)c1.[Cl-] [1-hexyl-3-methylimidazolium chloride] + CN(C)C=O
Conditions | mass density, [4] [kg/m3] | refractive index, [3] | viscosity, [4] [mPa·s]
288.15 K, x1 = 0.0312 | 964.44 | 1.44088 | 1.271
288.15 K, x1 = 0.0646 | 973.48 | 1.44818 | 1.715
288.15 K, x1 = 0.102 | 982 | 1.45488 | 2.392
288.15 K, x1 = 0.1456 | 990.33 | 1.46175 | 4.166
288.15 K, x1 = 0.196 | 998.49 | 1.46836 | 6.28
288.15 K, x1 = 0.2502 | 1005.77 | 1.47473 | 10.77
288.15 K, x1 = 0.3144 | 1013.08 | 1.4808 | 17.98
288.15 K, x1 = 0.3893 | 1020.04 | 1.48693 | 32.59
288.15 K, x1 = 0.4796 | 1026.84 | 1.49278 | 65.31
288.15 K, x1 = 0.591 | 1033.55 | 1.49886 | 134.94
288.15 K, x1 = 0.7249 | 1039.53 | 1.50429 | 232.47
288.15 K, x1 = 1 | 1047.99 | 1.5125 | –
298.15 K, x1 = 0.0312 | 955.32 | 1.43634 | 1.097
298.15 K, x1 = 0.0646 | 964.62 | 1.44359 | 1.451
298.15 K, x1 = 0.102 | 973.43 | 1.45059 | 2.064
298.15 K, x1 = 0.1456 | 982.06 | 1.45751 | 2.874
298.15 K, x1 = 0.196 | 990.57 | 1.46433 | 4.815
298.15 K, x1 = 0.2502 | 998.08 | 1.47086 | 7.927
298.15 K, x1 = 0.3144 | 1005.74 | 1.47702 | 12.52
298.15 K, x1 = 0.3893 | 1012.97 | 1.48213 | 21.49
298.15 K, x1 = 0.4796 | 1019.96 | 1.48933 | 40.25
298.15 K, x1 = 0.591 | 1026.93 | 1.49567 | 76.98
298.15 K, x1 = 0.7249 | 1033.24 | 1.50108 | 178.3
298.15 K, x1 = 1 | 1042.2 | 1.50953 | –
308.15 K, x1 = 0.0312 | 946.13 | 1.43187 | 0.961
308.15 K, x1 = 0.0646 | 955.75 | 1.43909 | 1.249
308.15 K, x1 = 0.102 | 964.86 | 1.44632 | 1.733
308.15 K, x1 = 0.1456 | 973.81 | 1.4533 | 2.348
308.15 K, x1 = 0.196 | 982.59 | 1.46038 | 3.817
308.15 K, x1 = 0.2502 | 990.42 | 1.46695 | 6.056
308.15 K, x1 = 0.3144 | 998.35 | 1.47335 | 9.115
308.15 K, x1 = 0.3893 | 1005.87 | 1.47856 | 15.08
308.15 K, x1 = 0.4796 | 1013.14 | 1.48595 | 26.46
308.15 K, x1 = 0.591 | 1020.36 | 1.49237 | 47.62
308.15 K, x1 = 0.7249 | 1026.94 | 1.49797 | 75.17
308.15 K, x1 = 1 | 1036.43 | 1.50667 | 2044.2
318.15 K, x1 = 0.0312 | 936.91 | 1.42765 | 0.852
318.15 K, x1 = 0.0646 | 946.92 | 1.43468 | 1.091
318.15 K, x1 = 0.102 | 956.28 | 1.44219 | 1.489
318.15 K, x1 = 0.1456 | 965.63 | 1.44909 | 1.957
318.15 K, x1 = 0.196 | 974.62 | 1.45652 | 3.113
318.15 K, x1 = 0.2502 | 982.82 | 1.46293 | 4.77
318.15 K, x1 = 0.3144 | 990.96 | 1.46974 | 6.88
318.15 K, x1 = 0.3893 | 998.8 | 1.47497 | 10.95
318.15 K, x1 = 0.4796 | 1006.38 | 1.48264 | 18.37
318.15 K, x1 = 0.591 | 1013.87 | 1.48916 | 31.33
318.15 K, x1 = 0.7249 | 1020.7 | 1.49498 | 47.69
318.15 K, x1 = 1 | 1030.62 | 1.5039 | 884.2

CCCCCCCC[n+]1ccn(C)c1.[Cl-] [1-methyl-3-octylimidazolium chloride]
Conditions | mass density, 288.15 K [kg/m3] | mass density, 298.15 K [kg/m3] | mass density, 308.15 K [kg/m3] | mass density, 318.15 K [kg/m3] | refractive index, 288.15 K | refractive index, 298.15 K | refractive index, 308.15 K | refractive index, 318.15 K | viscosity, 308.15 K [mPa·s] | viscosity, 318.15 K [mPa·s]
[1] | 1022.06 | 1015.97 | 1009.8 | 1003.62 | – | – | – | – | 155.03 | 65.95
[2] | – | – | – | – | 1.49008 | 1.48709 | 1.48413 | 1.48122 | – | –
